Laboratory results from PubChem BioAssay (NCI).
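These data come from cells grown in 96-well plates and exposed to compound for 48 hours at five concentrations. The concentration for 50% growth inhibition is given as GI50. At the TGI there is no net growth.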

What was measured:
Test in all cases: DTP human tumour cell line panel, 48 h
SF-268 CNS = tested on: SF-268 CNS
CAKI-1 renal = tested on: CAKI-1 renal
OVCAR-8 ovarian = tested on: OVCAR-8 ovarian
M14 melanoma = tested on: M14 melanoma
T-47D breast = tested on: T-47D breast
RPMI-8226 leukemia = tested on: RPMI-8226 leukemia
COLO 205 colon = tested on: COLO 205 colon
NCI/ADR-RES ovarian = tested on: NCI/ADR-RES ovarian
LOX IMVI melanoma = tested on: LOX IMVI melanoma
IGROV1 ovarian = tested on: IGROV1 ovarian
HCT-116 colon = tested on: HCT-116 colon
UACC-62 melanoma = tested on: UACC-62 melanoma
U251 CNS = tested on: U251 CNS
TK-10 renal = tested on: TK-10 renal
UO-31 renal = tested on: UO-31 renal
ACHN renal = tested on: ACHN renal
PC-3 prostate = tested on: PC-3 prostate
786-0 renal = tested on: 786-0 renal
SF-295 CNS = tested on: SF-295 CNS
OVCAR-3 ovarian = tested on: OVCAR-3 ovarian
HOP-62 NSCLC = tested on: HOP-62 NSCLC
SK-MEL-28 melanoma = tested on: SK-MEL-28 melanoma
SN12C renal = tested on: SN12C renal
HL-60(TB) leukemia = tested on: HL-60(TB) leukemia
OVCAR-4 ovarian = tested on: OVCAR-4 ovarian
MOLT-4 leukemia = tested on: MOLT-4 leukemia
EKVX NSCLC = tested on: EKVX NSCLC
SK-MEL-2 melanoma = tested on: SK-MEL-2 melanoma
HS 578T breast = tested on: HS 578T breast
DU-145 prostate = tested on: DU-145 prostate
SW-620 colon = tested on: SW-620 colon
MCF7 breast = tested on: MCF7 breast
NCI-H522 lung = tested on: NCI-H522 lung
SR leukemia = tested on: SR leukemia
OVCAR-5 ovarian = tested on: OVCAR-5 ovarian
RXF 393 renal = tested on: RXF 393 renal
MALME-3M melanoma = tested on: MALME-3M melanoma
SK-OV-3 ovarian = tested on: SK-OV-3 ovarian
SNB-19 CNS = tested on: SNB-19 CNS
A498 renal = tested on: A498 renal
NCI-H23 lung = tested on: NCI-H23 lung
HCT-15 colon = tested on: HCT-15 colon
HCC-2998 colon = tested on: HCC-2998 colon
MDA-MB-435 = tested on: MDA-MB-435
KM12 colon = tested on: KM12 colon
K-562 leukemia = tested on: K-562 leukemia
SNB-75 CNS = tested on: SNB-75 CNS
SF-539 CNS = tested on: SF-539 CNS
NCI-H460 lung = tested on: NCI-H460 lung
BT-549 breast = tested on: BT-549 breast
NCI-H226 lung = tested on: NCI-H226 lung
MDA-MB-231 breast = tested on: MDA-MB-231 breast
A549 NSCLC = tested on: A549 NSCLC
HT29 colon = tested on: HT29 colon
SK-MEL-5 melanoma = tested on: SK-MEL-5 melanoma
CCRF-CEM leukemia = tested on: CCRF-CEM leukemia
UACC-257 melanoma = tested on: UACC-257 melanoma

COc1cc2c(c(OC)c1OC)-c1ccc(NNC(N)=S)c(=O)cc1[C@@H](NC(C)=O)CC2
GI50 (SF-268 CNS): 509 nM | TGI (SF-268 CNS): > 100000 nM | GI50 (CAKI-1 renal): 11700 nM | TGI (CAKI-1 renal): > 100000 nM | GI50 (OVCAR-8 ovarian): 863 nM | TGI (OVCAR-8 ovarian): > 100000 nM | GI50 (M14 melanoma): 284 nM | TGI (M14 melanoma): 735 nM | GI50 (T-47D breast): > 100000 nM | TGI (T-47D breast): > 100000 nM | GI50 (RPMI-8226 leukemia): 390 nM | TGI (RPMI-8226 leukemia): > 29400 nM | GI50 (COLO 205 colon): 244 nM | TGI (COLO 205 colon): 529 nM | GI50 (NCI/ADR-RES ovarian): 19400 nM | TGI (NCI/ADR-RES ovarian): > 100000 nM | GI50 (LOX IMVI melanoma): 687 nM | TGI (LOX IMVI melanoma): > 100000 nM | GI50 (IGROV1 ovarian): 1180 nM | TGI (IGROV1 ovarian): > 100000 nM | GI50 (HCT-116 colon): 348 nM | TGI (HCT-116 colon): > 32600 nM | GI50 (UACC-62 melanoma): 666 nM | TGI (UACC-62 melanoma): > 100000 nM | GI50 (U251 CNS): 415 nM | TGI (U251 CNS): > 100000 nM | GI50 (TK-10 renal): > 26000 nM | TGI (TK-10 renal): > 100000 nM | GI50 (UO-31 renal): > 25900 nM | TGI (UO-31 renal): > 100000 nM | GI50 (ACHN renal): 7190 nM | TGI (ACHN renal): > 100000 nM | GI50 (PC-3 prostate): 290 nM | TGI (PC-3 prostate): > 100000 nM | GI50 (786-0 renal): 867 nM | TGI (786-0 renal): > 100000 nM | GI50 (SF-295 CNS): 630 nM | TGI (SF-295 CNS): > 100000 nM | GI50 (OVCAR-3 ovarian): 238 nM | TGI (OVCAR-3 ovarian): 623 nM | GI50 (HOP-62 NSCLC): 739 nM | TGI (HOP-62 NSCLC): > 100000 nM | GI50 (SK-MEL-28 melanoma): 777 nM | TGI (SK-MEL-28 melanoma): > 100000 nM | GI50 (SN12C renal): 881 nM | TGI (SN12C renal): > 100000 nM | GI50 (HL-60(TB) leukemia): 226 nM | GI50 (OVCAR-4 ovarian): 625 nM | TGI (OVCAR-4 ovarian): > 100000 nM | GI50 (MOLT-4 leukemia): 568 nM | TGI (MOLT-4 leukemia): > 100000 nM | GI50 (EKVX NSCLC): 3670 nM | TGI (EKVX NSCLC): > 100000 nM | TGI (SK-MEL-2 melanoma): > 100000 nM | TGI (HS 578T breast): > 100000 nM | GI50 (DU-145 prostate): 341 nM | TGI (DU-145 prostate): 1440 nM | GI50 (SW-620 colon): 365 nM | TGI (SW-620 colon): > 100000 nM | GI50 (MCF7 breast): 372 nM | TGI (MCF7 breast): > 100000 nM | GI50 (NCI-H522 lung): 550 nM | TGI (NCI-H522 lung): > 100000 nM | GI50 (SR leukemia): 279 nM | TGI (SR leukemia): > 100000 nM | GI50 (OVCAR-5 ovarian): 7210 nM | TGI (OVCAR-5 ovarian): > 100000 nM | GI50 (RXF 393 renal): 298 nM | TGI (RXF 393 renal): 747 nM | GI50 (MALME-3M melanoma): 2800 nM | TGI (MALME-3M melanoma): > 100000 nM | GI50 (SK-OV-3 ovarian): 817 nM | TGI (SK-OV-3 ovarian): > 100000 nM | GI50 (SNB-19 CNS): 558 nM | TGI (SNB-19 CNS): > 100000 nM | GI50 (A498 renal): 930 nM | TGI (A498 renal): > 21100 nM | GI50 (NCI-H23 lung): 414 nM | TGI (NCI-H23 lung): > 49900 nM | GI50 (HCT-15 colon): 4230 nM | TGI (HCT-15 colon): > 100000 nM | GI50 (HCC-2998 colon): 263 nM | GI50 (MDA-MB-435): 255 nM | GI50 (KM12 colon): 301 nM | TGI (KM12 colon): 1920 nM | GI50 (K-562 leukemia): 348 nM | TGI (K-562 leukemia): > 100000 nM | TGI (SNB-75 CNS): > 100000 nM | GI50 (SF-539 CNS): 338 nM | TGI (SF-539 CNS): 4310 nM | GI50 (NCI-H460 lung): 397 nM | GI50 (BT-549 breast): 370 nM | TGI (NCI-H226 lung): > 100000 nM | GI50 (MDA-MB-231 breast): 327 nM | TGI (MDA-MB-231 breast): 3520 nM | GI50 (A549 NSCLC): 3120 nM | TGI (A549 NSCLC): > 100000 nM | GI50 (HT29 colon): 365 nM | TGI (HT29 colon): > 100000 nM | GI50 (SK-MEL-5 melanoma): 345 nM | TGI (SK-MEL-5 melanoma): 2520 nM | GI50 (CCRF-CEM leukemia): 434 nM | TGI (CCRF-CEM leukemia): > 100000 nM | TGI (UACC-257 melanoma): > 100000 nM
